Data: publication PMC6277198, “Molecular basis for activation of lecithin:cholesterol acyltransferase by a compound that increases HDL cholesterol” (eLife, 2018)
Numbering of substitutions follows the chain as printed.

What was measured:
Test in all cases: Differential scanning fluorimetry
[1] = test system: LCAT Y51S, G71I, and Y51S/G71I variants; format: binding, human
Experimental: (§1) Tm values were determined using an Applied Biosystems QuantStudio 7 Flex qPCR machine with two replicates performed at least in triplicate. LCAT at 0.05 mg mL^−1 was diluted into reaction buffer containing 5X Sypro Orange in a final volume of 10 μL in 384-well PCR plates. DMSO or compound 1 was added so that all reactions contained 3% DMSO. The reactions were run from 25–95 °C with a ramp rate of 0.03 °C s^−1. Tm values were determined as the derivative using Protein Thermal Shift software. Significance was determined using a one-way analysis of variance followed by Tukey’s multiple comparisons post-test in GraphPad Prism.

LCAT R244H = molecular target: T1, LCAT R244H (Homo sapiens, UniProt P04180, R268H); format: binding; settings: addition of compound 1
T1 construct: hydrolysis of 4-methylumbelliferyl palmitate (MUP) by full-length LCAT; made in house; host or cells: HEK293F (transient transfection, secreted)
T1 sequence (P04180 25-440 R268H): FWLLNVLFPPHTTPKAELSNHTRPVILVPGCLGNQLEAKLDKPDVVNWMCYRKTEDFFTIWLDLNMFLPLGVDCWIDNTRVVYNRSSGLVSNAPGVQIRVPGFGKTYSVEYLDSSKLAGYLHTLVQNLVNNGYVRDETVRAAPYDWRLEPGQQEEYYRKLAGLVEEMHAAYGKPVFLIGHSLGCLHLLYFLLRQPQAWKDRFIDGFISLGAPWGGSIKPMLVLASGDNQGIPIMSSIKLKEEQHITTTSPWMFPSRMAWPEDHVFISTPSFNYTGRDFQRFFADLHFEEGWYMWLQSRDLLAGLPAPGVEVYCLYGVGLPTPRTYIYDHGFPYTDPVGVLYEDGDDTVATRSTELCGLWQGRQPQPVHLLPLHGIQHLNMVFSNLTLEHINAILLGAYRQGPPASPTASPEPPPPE
Experimental: as §1

LCAT R244A = molecular target: T2, LCAT R244A (Homo sapiens, UniProt P04180, R268A); format: binding; settings: addition of compound 1
T2 construct: hydrolysis of 4-methylumbelliferyl palmitate (MUP) by full-length LCAT; made in house; host or cells: HEK293F (transient transfection, secreted)
T2 sequence (P04180 25-440 R268A): T1 sequence (P04180 25-440 R268H) with H244A
Experimental: as §1

∆Tm (LCAT R244H): 4.8 ˚C
∆Tm (LCAT R244A): 6.0 ˚C
SMILES: N#Cc1cnc(N2CCC(c3n[nH]c4c3C(O)(C(F)(F)F)CC(=O)N4)CC2)cc1C(F)(F)F (stereo not drawn) [compound 1, 6-(4-(4-Hydroxy-6-oxo-4-(trifluoromethyl)−4,5,6,7-tetrahydro-1H-pyrazolo[3,4-b]pyridin-3-yl)piperidin-1-yl)−4-(trifluoromethyl)nicotinonitrile]
Increase of Tm compared to WT (DSF) [1]: far less effective
